Data published in patent publication US5703083A, “N-aminoalkyl-1-biphenylenyl-2-carboxamides; new dopamine receptor subtype specific ligands” (Neurogen Corporation, priority 1996, dated 1997).
Where a name gives a salt, the structure may show the parent alone.

What was measured:
[1] = target: D2 receptors from African Green monkey; assay: D2 receptor binding (displacement of 3H-YM 09151-2); details: COS cells with recombinant D2 receptors; 0.5 nM 3H-YM 09151-2; nonspecific binding with 1 mM spiperone
Experimental: (§1) Pellets of COS cells containing recombinantly produced D2 or D3 receptors from African Green monkey were used for the assays. The sample is homogenized in 100 volumes (w/vol) of 0.05M Tris HCI buffer at 4° C and pH 7.4. The sample is then centfifuged at 30,000×g and resuspended and rehomogenized. The sample is then centdfuged as described and the final tissue sample is frozen until use. The tissue is resuspended 1:20 (wt/vol) in 0.05M Tris HCl buffer containing 100 mM NaCl.
(§2) Incubations are carried out at 48° C and contain 0.4 ml of tissue sample, 0.5 nM ^3 H-YM 09151-2 and the compound of interest in a total incubation of 1.0 ml. Nonspecific binding is defined as that binding found in the presence of 1 mM spiperone; without further additions, nonspecific binding is less than 20% of total binding. The binding characteristics of representative compounds of the invention for D2 and D3 receptor subtypes are shown in Table 2 for rat striatal homogenates.

[2] = target: T1, D3 receptors from African Green monkey (Chlorocebus aethiops, UniProt P52703); assay: D3 receptor binding (displacement of 3H-YM 09151-2); details: COS cells with recombinant D3 receptors; 0.5 nM 3H-YM 09151-2; nonspecific binding with 1 mM spiperone
T1 construct: expressed in transfected cells; host or cells: COS cells
Experimental: as §1, §2

T1 sequence (P52703 whole entry): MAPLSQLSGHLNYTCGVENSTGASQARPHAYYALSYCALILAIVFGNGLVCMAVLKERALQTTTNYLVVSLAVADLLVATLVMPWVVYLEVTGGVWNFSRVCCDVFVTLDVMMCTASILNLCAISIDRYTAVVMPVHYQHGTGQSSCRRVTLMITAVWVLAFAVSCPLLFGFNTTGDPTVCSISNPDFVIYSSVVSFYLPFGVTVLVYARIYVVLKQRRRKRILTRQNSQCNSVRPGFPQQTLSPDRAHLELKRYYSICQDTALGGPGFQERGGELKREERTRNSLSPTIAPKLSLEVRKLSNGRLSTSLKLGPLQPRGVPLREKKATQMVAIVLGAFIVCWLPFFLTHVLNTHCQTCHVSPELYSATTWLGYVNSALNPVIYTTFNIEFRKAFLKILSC

Ki [1] [nM]	Ki [2] [nM]	Compound
323	5	COc1ccccc1N1CCN(CCCCNC(=O)c2ccc3c(c2)-c2ccccc2-3)CC1 [Compound 1, 1-(2-Methoxyphenyl)-4-{4-[N-(1-biphenylene-2-carboxamido)]butyl}piperazine]
138	3	O=C(NCCCCN1CCN(c2cccc3ccccc23)CC1)c1ccc2c(c1)-c1ccccc1-2 [Compound 3, 1-(1-Napthyl)-4-{4-[N-(1-biphenylene-2-carboxamido)]butyl}piperazine dihydrochloride]
> 100	15	O=C(NCCCCN1CCN(c2nccc3ccccc23)CC1)c1ccc2c(c1)-c1ccccc1-2 [Compound 4, 1-(1-Isoquinolyl)-4-{4-[N-(1-biphenylene-2-carboxamido)]butyl}piperazine d ihydrochloride]
